This note sets out measurements from ChEMBL document CHEMBL3525943, “Regiospecific and stereospecific triangulation of the structures of metabolites formed by sequential metabolism at multiple prochiral centers” (Drug Metab Dispos, 2012).

What all share (set-up): dose 2 mg/kg, route oral
What all share (settings): in vivo

Data set [1] in a line: Drug excretion in female Sprague-Dawley rat feces treated with [14C]-AMG 221 at 2 mg/kg, po measured over 24 hrs by LC-MS/HPLC radiometric analysis. It is filed as ADME, organism-based.
Data set [2] is described as follows: Retention time of the compound in Sprague-Dawley rat urine treated with [14C]-AMG 221 at 2 mg/kg, po after 12 hrs by LC-MS/HPLC radiometric analysis. It is filed as ADME, organism-based.
A further data set concerns Rattus norvegicus. Description: Total drug recovery in female Sprague-Dawley rat treated with [14C]-AMG 221 at 2 mg/kg, po measured over 48 hrs by liquid scintillation counting analysis. It counts as ADME, organism-based.
Data set [3] in a line: Drug excretion in male Sprague-Dawley rat urine treated with [14C]-AMG 221 at 2 mg/kg, po measured over 24 hrs by LC-MS/HPLC radiometric analysis. It counts as ADME, organism-based.
Data set [4] is described as follows: Drug excretion in male Sprague-Dawley rat feces treated with [14C]-AMG 221 at 2 mg/kg, po measured over 24 hrs by LC-MS/HPLC radiometric analysis. It counts as ADME, organism-based.
Data set [5] can be described thus: Drug excretion in female Sprague-Dawley rat urine treated with [14C]-AMG 221 at 2 mg/kg, po measured over 24 hrs by LC-MS/HPLC radiometric analysis. It counts as ADME, organism-based.
Data set [6] in a line: Retention time of the compound in Sprague-Dawley rat urine treated with [14C]-AMG 221 at 2 mg/kg, po measured over 24 hrs by LC-MS/HPLC radiometric analysis. It counts as ADME, organism-based.
The nature of data set [7]: Retention time of the compound in Beagle dog urine treated with [14C]-AMG 221 at 2 mg/kg, po measured over 24 hrs by LC-MS/HPLC radiometric analysis. It counts as ADME, organism-based, Canis lupus familiaris.

SMILES strings stand for the structures.

As for `CC(C)[C@]1(C)SC(N[C@H]2C[C@H]3C[C@@H]2C[C@@H]3O)=NC1=O`, the Drug excretion came out at 24% in data set [1], 17% in data set [3], 17% in data set [4] and 24% in data set [5]. Moreover, the Retention_time in data set [2] is recorded as 30.3 min. Moreover, the Drug recovery with Rattus norvegicus was found to be 24.2%.
`CC(C)[C@]1(C)SC(N[C@H]2C[C@H]3C[C@@H]2C[C@H]3O)=NC1=O`: the Drug excretion in data set [1] came out at 37%; in data set [3], 29%; in data set [4], 29%; in data set [5], 37%. In data set [2], this compound registered a Retention_time of 30.9 min. This compound also had a Drug recovery with Rattus norvegicus of 4.7%.
In the data set with Rattus norvegicus, `C[C@H](CO)[C@]1(C)SC(N[C@H]2C[C@H]3C[C@@H]2CC3=O)=NC1=O` had a Drug recovery of 0.1%. In data set [6], the Retention_time was 9.2 min.
On to `C[C@H](C(=O)O)[C@]1(C)SC(N[C@H]2C[C@@H]3CC[C@H]2C3)=NC1=O`, for which, in data set [6], the Retention_time stood at 25.8 min.
`C[C@@H](C(=O)O)[C@]1(C)SC(N[C@H]2C[C@@H]3CC[C@H]2C3)=NC1=O` registered a Drug recovery in the data set with Rattus norvegicus of 0.5%. In data set [7], the Retention_time is reported as 35.7 min.
For the compound `C=C(C)[C@]1(C)SC(N[C@H]2C[C@H]3C[C@@H]2C[C@@H]3O)=NC1=O`, the Drug recovery with Rattus norvegicus is reported as 0.8%. This compound also gave a Retention_time in data set [6] of 27.9 min.
Take `C=C(C)[C@]1(C)SC(N[C@H]2C[C@H]3C[C@@H]2[C@H](O)C3)=NC1=O`: the Drug recovery in the data set on Rattus norvegicus was determined as 0.1%. The same compound yielded a Retention_time in data set [7] of 29.9 min.
In turn, `C[C@@H](CO)[C@]1(C)SC(N[C@H]2C[C@H]3C[C@@H]2CC3=O)=NC1=O` had a Drug recovery with Rattus norvegicus of 2.1%. In data set [6], this compound showed a Retention_time of 14.1 min.
In data set [6], `CC(C)(O)[C@]1(C)SC(N[C@H]2C[C@H]3C[C@@H]2CC3=O)=NC1=O` had a Retention_time of 20.7 min.
As to `C[C@H](CO)[C@]1(C)SC(N[C@H]2C[C@H]3C[C@@H]2C[C@H]3O)=NC1=O`, the Drug excretion in data set [1] is recorded as 24%; in data set [3] it was 8.3%; in data set [4], 8.3%; in data set [5] it was 24%. In addition, in the data set on Rattus norvegicus, the Drug recovery is given as 0.2%. In data set [6], this compound yielded a Retention_time of 8.5 min.
Regarding `C[C@H](CO)[C@]1(C)SC(N[C@H]2C[C@H]3C[C@@H]2[C@H](O)C3)=NC1=O`, the Drug excretion in data set [1] was 24%; in data set [3] it was 8.3%; in data set [4], 8.3%; in data set [5], 24%. In the data set on Rattus norvegicus, this compound yielded a Drug recovery of 0.1%. Further, in data set [6], the Retention_time is recorded as 9.9 min.
In the data set with Rattus norvegicus, `CC(CO[C@@H]1O[C@H](C(=O)O)[C@@H](O)[C@H](O)[C@H]1O)[C@]1(C)SC(N[C@H]2C[C@@H]3CC[C@H]2C3)=NC1=O` (stereo not given in full) showed a Drug recovery of 0.1%. Besides, in data set [7], the Retention_time worked out at 27.8 min.
Turning to `CC(C)[C@]1(C)SC(N[C@H]2C[C@H]3C[C@@H]2[C@H](O)[C@@H]3O)=NC1=O`, the Drug excretion in data set [1] worked out at 24%; in data set [3] it was 8.3%; in data set [4] it was 8.3%; in data set [5], 24%. This compound also had a Drug recovery with Rattus norvegicus of 0.1%. Besides, the Retention_time in data set [6] was determined as 19.2 min.
On to `CC(O)(CO)[C@]1(C)SC(N[C@H]2C[C@@H]3CC[C@H]2C3)=NC1=O` (stereo not given in full), for which the Drug excretion in data set [1] is recorded as 24%; in data set [3], 8.3%; in data set [4] it was 8.3%; in data set [5], 24%. Moreover, the Drug recovery with Rattus norvegicus stood at 0.1%. The compound further had a Retention_time in data set [7] of 31.5 min.
